Test results as given in the supplement of paper PMC7341893.
± gives the standard deviation of the averaged measurements.

Legend:
Assay in all cases: growth (OD600) normalised to reference wells; higher = more growth / less inhibition
HAC1_HOP = tested on: HAC1_HOP
Method: (§1)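 S. cerevisiae strains (wild type, SPT14 point-mutant knock-ins, HIP heterozygous and HOP homozygous deletion strains) were grown in rich medium in 96-well plates with 12-point serial dilutions of jawsamycin or clotrimazole (DMSO normalised to 2%). Growth was read as OD600 and normalised within each dilution series (NormOD, % growth). Wells set exactly to 100 are normalisation references and are left out.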

GPI2_HIP = tested on: GPI2_HIP
Method: as §1

MUD2_HOP = tested on: MUD2_HOP
Method: as §1

GPI15_HIP = tested on: GPI15_HIP
Method: as §1

SPT14(WT) = tested on: SPT14(WT)
Method: as §1

HO_HIP = tested on: HO_HIP
Method: as §1

MID2_HOP = tested on: MID2_HOP
Method: as §1

HO_HOP = tested on: HO_HOP
Method: as §1

JIP3_HOP = tested on: JIP3_HOP
Method: as §1

IRE1_HOP = tested on: IRE1_HOP
Method: as §1

SPT14_HIP = tested on: SPT14_HIP
Method: as §1

SPT14(T114A) = tested on: SPT14(T114A)
Method: as §1

SPT14(V76F) = tested on: SPT14(V76F)
Method: as §1

SPT14(H106Y) = tested on: SPT14(H106Y)
Method: as §1

GPI1_HIP = tested on: GPI1_HIP
Method: as §1

RLM1_HOP = tested on: RLM1_HOP
Method: as §1

C[C@@H]1C[C@H]1/C=C/[C@@H]1C[C@H]1[C@@H]1C[C@H]1[C@@H]1C[C@H]1[C@@H]1C[C@H]1/C=C/C=C/C(=O)NC[C@H]1O[C@@H](N2CCC(=O)NC2=O)[C@H](O)[C@@H]1O [Jawsamycin]
Details	growth [%]
GPI1_HIP, 0.125900179 µM	95.1 ± 5
GPI1_HIP, 0.26439 µM	65.4 ± 2
GPI1_HIP, 0.55522 µM	3.38 ± 0.54
GPI1_HIP, 1.16596 µM	0.172 ± 0.55
GPI1_HIP, 2.44852 µM	-0.0309 ± 0.13
GPI1_HIP, 5.14189 µM	0.123 ± 0.43
GPI1_HIP, 10.79796998 µM	-0.0696 ± 0.33
GPI1_HIP, 22.6757 µM	-0.0919 ± 0.24
GPI1_HIP, 47.619 µM	0.953 ± 0.27
GPI1_HIP, 100 µM	4.06 ± 0.43
GPI2_HIP, 0.125900179 µM	102 ± 12
GPI2_HIP, 0.26439 µM	78.2 ± 6
GPI2_HIP, 0.55522 µM	12.1 ± 12
GPI2_HIP, 1.16596 µM	0.957 ± 1.3
GPI2_HIP, 2.44852 µM	-0.153 ± 0.52
GPI2_HIP, 5.14189 µM	-0.208 ± 0.26
GPI2_HIP, 10.79796998 µM	-0.242 ± 0.21
GPI2_HIP, 22.6757 µM	0.183 ± 0.11
GPI2_HIP, 47.619 µM	1.43 ± 0.45
GPI2_HIP, 100 µM	3.73 ± 0.85
GPI15_HIP, 0.125900179 µM	96 ± 4.2
GPI15_HIP, 0.26439 µM	83.9 ± 4.3
GPI15_HIP, 0.55522 µM	14.5 ± 1.1
GPI15_HIP, 1.16596 µM	0.707 ± 1
GPI15_HIP, 2.44852 µM	-0.181 ± 0.52
GPI15_HIP, 5.14189 µM	-0.594 ± 0.33
GPI15_HIP, 10.79796998 µM	-0.329 ± 0.29
GPI15_HIP, 22.6757 µM	-0.355 ± 0.18
GPI15_HIP, 47.619 µM	2.02 ± 0.8
GPI15_HIP, 100 µM	3.35 ± 1
HAC1_HOP, 0.12590018 µM	72.1 ± 4.1
HAC1_HOP, 0.26439 µM	23.7 ± 11
HAC1_HOP, 0.55522 µM	3.92 ± 1.4
HAC1_HOP, 1.16596156 µM	2.26 ± 2.9
HAC1_HOP, 2.44852 µM	0.418 ± 0.45
HAC1_HOP, 5.14189 µM	0.344 ± 0.077
HAC1_HOP, 10.798 µM	1.36 ± 0.26
HO_HIP, 0.125900179 µM	100.4 ± 0.2
HO_HIP, 0.26439 µM	96.5 ± 10
HO_HIP, 0.55522 µM	29.9
HO_HIP, 1.16596 µM	5.52 ± 5.4
HO_HIP, 2.44852 µM	1.29 ± 1.6
HO_HIP, 5.14189 µM	0.138 ± 0.75
HO_HIP, 10.79796998 µM	-0.0442 ± 0.35
HO_HIP, 22.6757 µM	0.182 ± 0.18
HO_HIP, 47.619 µM	5.56 ± 1.6
HO_HIP, 100 µM	11.6 ± 7.3
HO_HOP, 0.12590018 µM	97 ± 3.7
HO_HOP, 0.26439 µM	84 ± 8.2
HO_HOP, 0.55522 µM	56 ± 15
HO_HOP, 1.16596156 µM	15.1 ± 4.4
HO_HOP, 2.44852 µM	4.54 ± 0.77
HO_HOP, 5.14189 µM	1.38 ± 0.34
HO_HOP, 10.798 µM	8.54 ± 3.9
IRE1_HOP, 0.12590018 µM	70.1 ± 3.1
IRE1_HOP, 0.26439 µM	14.2 ± 8.8
IRE1_HOP, 0.55522 µM	2.66 ± 1.7
IRE1_HOP, 1.16596156 µM	-0.118 ± 0.44
IRE1_HOP, 2.44852 µM	-0.241 ± 0.45
IRE1_HOP, 5.14189 µM	-0.264 ± 0.47
IRE1_HOP, 10.798 µM	0.8 ± 0.17
JIP3_HOP, 0.12590018 µM	64.5 ± 38
JIP3_HOP, 0.26439 µM	-0.444 ± 0.1
JIP3_HOP, 0.55522 µM	-0.584 ± 0.029
JIP3_HOP, 1.16596156 µM	-0.756 ± 0.065
JIP3_HOP, 2.44852 µM	-0.689 ± 0.054
JIP3_HOP, 5.14189 µM	-0.655 ± 0.015
JIP3_HOP, 10.798 µM	0.0162 ± 0.019
MID2_HOP, 0.12590018 µM	89.4 ± 4
MID2_HOP, 0.26439 µM	0.809 ± 2.5
MID2_HOP, 0.55522 µM	-0.646 ± 0.35
MID2_HOP, 1.16596156 µM	-0.903 ± 0.097
MID2_HOP, 2.44852 µM	-0.918 ± 0.13
MID2_HOP, 5.14189 µM	-0.848 ± 0.081
MID2_HOP, 10.798 µM	-0.546 ± 0.14
MUD2_HOP, 0.12590018 µM	33.2 ± 14
MUD2_HOP, 0.26439 µM	0.873 ± 1.4
MUD2_HOP, 0.55522 µM	-1.12 ± 0.056
MUD2_HOP, 1.16596156 µM	-1.19 ± 0.32
MUD2_HOP, 2.44852 µM	-0.498 ± 1.1
MUD2_HOP, 5.14189 µM	-0.906 ± 0.31
MUD2_HOP, 10.798 µM	-0.454 ± 0.53
RLM1_HOP, 0.12590018 µM	88 ± 7.7
RLM1_HOP, 0.26439 µM	2.22 ± 3
RLM1_HOP, 0.55522 µM	-0.308 ± 0.17
RLM1_HOP, 1.16596156 µM	-0.482 ± 0.12
RLM1_HOP, 2.44852 µM	-0.568 ± 0.1
RLM1_HOP, 5.14189 µM	-0.545 ± 0.051
RLM1_HOP, 10.798 µM	-0.0157 ± 0.11
SPT14(H106Y), 0.0599525 µM	99.9 ± 7.8
SPT14(H106Y), 0.125900179 µM	99.6 ± 6.1
SPT14(H106Y), 0.26439 µM	96 ± 2.1
SPT14(H106Y), 0.55522 µM	91.6 ± 4.1
SPT14(H106Y), 1.16596 µM	65.8 ± 17
SPT14(H106Y), 2.44852 µM	1.98 ± 7.4
SPT14(H106Y), 5.14189 µM	-4.83 ± 0.1
SPT14(H106Y), 10.79796998 µM	-5.01 ± 0.39
SPT14(H106Y), 22.6757 µM	-5 ± 0.36
SPT14(H106Y), 47.619 µM	-2.96 ± 0.32
SPT14(H106Y), 100 µM	0.649 ± 1.2
SPT14(T114A), 0.0599525 µM	96.9 ± 3.4
SPT14(T114A), 0.125900179 µM	97.4 ± 2.2
SPT14(T114A), 0.26439 µM	92.3 ± 1.1
SPT14(T114A), 0.55522 µM	86.4 ± 6.1
SPT14(T114A), 1.16596 µM	61 ± 6.8
SPT14(T114A), 2.44852 µM	-0.886 ± 0.7
SPT14(T114A), 5.14189 µM	-4.03 ± 0.75
SPT14(T114A), 10.79796998 µM	-3.95 ± 0.067
SPT14(T114A), 22.6757 µM	-3.63 ± 0.075
SPT14(T114A), 47.619 µM	-2.26 ± 0.22
SPT14(T114A), 100 µM	0.0855 ± 0.21
SPT14(V76F), 0.1259 µM	101.9 ± 0.58
SPT14(V76F), 0.26439 µM	103 ± 3.4
SPT14(V76F), 0.55522 µM	104 ± 4.9
SPT14(V76F), 1.16596 µM	96.4 ± 2.8
SPT14(V76F), 2.44852 µM	100 ± 9.3
SPT14(V76F), 5.14189 µM	99 ± 1.6
SPT14(V76F), 10.798 µM	102 ± 3.1
SPT14(V76F), 22.6757 µM	102 ± 4
SPT14(V76F), 100 µM	74.6 ± 10
SPT14(WT), 0.0599525 µM	80.5 ± 8.5
SPT14(WT), 0.125900179 µM	17.9 ± 28
SPT14(WT), 0.26439 µM	-3.32 ± 2.1
SPT14(WT), 0.55522 µM	-3.82 ± 2.3
SPT14(WT), 1.16596 µM	-3.97 ± 2.3
SPT14(WT), 2.44852 µM	-3.91 ± 2.2
SPT14(WT), 5.14189 µM	-3.92 ± 2.3
SPT14(WT), 10.79796998 µM	-3.59 ± 2.6
SPT14(WT), 22.6757 µM	-3.29 ± 2.7
SPT14(WT), 47.619 µM	-1.96 ± 2.4
SPT14(WT), 100 µM	-0.804 ± 1.2
SPT14_HIP, 0.125900179 µM	108 ± 16
SPT14_HIP, 0.26439 µM	89.878 ± 0.04
SPT14_HIP, 0.55522 µM	21.9
SPT14_HIP, 1.16596 µM	2.72 ± 2.1
SPT14_HIP, 2.44852 µM	0.0973 ± 0.67
SPT14_HIP, 5.14189 µM	-0.496 ± 0.4
SPT14_HIP, 10.79796998 µM	-0.548 ± 0.2
SPT14_HIP, 22.6757 µM	0.0487 ± 0.98
SPT14_HIP, 47.619 µM	2.81 ± 0.48
SPT14_HIP, 100 µM	5.21 ± 0.21
